Test results reported in ChEMBL document CHEMBL1201862, “PubChem BioAssay data set” (2004).
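Method: 48-hour compound exposure of cells in 96-well plates, five concentrations, linear interpolation of endpoints. Here, GI50 denotes the concentration required for 50% inhibition of growth.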 Active and inactive are the calls of the source. Cut-off read from the data, not from the text of the source: active = GI50 up to about 1.1 µM and inactive = higher.

Columns and labels:
Experiment in all cases: NCI tumour cell line growth inhibition, 48 h
[1] = tested on: 786-0
[2] = tested on: A498
[3] = tested on: A549
[4] = tested on: ACHN
[5] = tested on: CAKI-1
[6] = tested on: CCRF-CEM
[7] = tested on: COLO 205
[8] = tested on: DLD-1
[9] = tested on: DMS-114
[10] = tested on: EKVX
[11] = tested on: HCC 2998
[12] = tested on: HCT-116
[13] = tested on: HCT-15
[14] = tested on: HL-60
[15] = tested on: HOP-18
[16] = tested on: HOP-62
[17] = tested on: HOP-92
[18] = tested on: HT-29
[19] = tested on: IGROV-1
[20] = tested on: K562
[21] = tested on: KM-20L2
[22] = tested on: KM12
[23] = tested on: LXFL 529
[24] = tested on: M14
[25] = tested on: M19-MEL
[26] = tested on: MOLT-4
[27] = tested on: Malme-3M
[28] = tested on: NCI-H23
[29] = tested on: NCI-H460
[30] = tested on: NCI-H522
[31] = tested on: OVCAR-3
[32] = tested on: OVCAR-4
[33] = tested on: OVCAR-5
[34] = tested on: OVCAR-8
[35] = tested on: RXF 393
[36] = tested on: RXF 631
[37] = tested on: SF-268
[38] = tested on: SF-295
[39] = tested on: SF-539
[40] = tested on: SK-MEL-28
[41] = tested on: SK-MEL-2
[42] = tested on: SK-MEL-5
[43] = tested on: SN12C
[44] = tested on: SNB-19
[45] = tested on: SNB-75
[46] = tested on: SNB-78
[47] = tested on: SW-620
[48] = tested on: TK-10
[49] = tested on: U-251
[50] = tested on: UACC-257
[51] = tested on: UACC-62
[52] = tested on: UO-31
[53] = tested on: DMS-273
[54] = tested on: LOX IMVI
[55] = tested on: NCI-H226
[56] = tested on: RPMI-8226
[57] = tested on: SK-OV-3
[58] = tested on: SR

## Cn1c(=O)c2/c(n(C)c1=O)=N\C=c1\c(=O)n(C)c(=O)n(C)\c1=N\C=2
[1]
  GI50: > 100000 nM (inactive)
[2]
  GI50: > 100000 nM (inactive)
[3]
  GI50: > 100000 nM (inactive)
[4]
  GI50: > 100000 nM (inactive)
[5]
  GI50: > 100000 nM (inactive)
[6]
  GI50: > 100000 nM (inactive)
[7]
  GI50: > 100000 nM (inactive)
[8]
  GI50: > 100000 nM (inactive)
[9]
  GI50: > 100000 nM (inactive)
[10]
  GI50: > 100000 nM (inactive)
[11]
  GI50: > 100000 nM (inactive)
[12]
  GI50: > 100000 nM (inactive)
[13]
  GI50: > 100000 nM
[14]
  GI50: > 100000 nM (inactive)
[15]
  GI50: > 100000 nM (inactive)
[16]
  GI50: > 100000 nM (inactive)
[17]
  GI50: > 100000 nM (inactive)
[18]
  GI50: > 100000 nM (inactive)
[19]
  GI50: > 100000 nM (inactive)
[20]
  GI50: > 100000 nM (inactive)
[21]
  GI50: > 100000 nM (inactive)
[22]
  GI50: > 100000 nM (inactive)
[23]
  GI50: > 100000 nM (inactive)
[24]
  GI50: > 100000 nM (inactive)
[25]
  GI50: > 100000 nM (inactive)
[26]
  GI50: > 100000 nM (inactive)
[27]
  GI50: > 100000 nM (inactive)
[28]
  GI50: > 100000 nM (inactive)
[29]
  GI50: > 100000 nM (inactive)
[30]
  GI50: > 100000 nM (inactive)
[31]
  GI50: > 100000 nM (inactive)
[32]
  GI50: > 100000 nM (inactive)
[33]
  GI50: > 100000 nM (inactive)
[34]
  GI50: > 100000 nM (inactive)
[35]
  GI50: > 100000 nM (inactive)
[36]
  GI50: > 100000 nM (inactive)
[37]
  GI50: > 100000 nM (inactive)
[38]
  GI50: > 100000 nM (inactive)
[39]
  GI50: > 100000 nM (inactive)
[40]
  GI50: > 100000 nM (inactive)
[41]
  GI50: > 100000 nM (inactive)
[42]
  GI50: > 100000 nM (inactive)
[43]
  GI50: > 100000 nM (inactive)
[44]
  GI50: > 100000 nM (inactive)
[45]
  GI50: 39400 nM (inactive)
[46]
  GI50: 76200 nM (inactive)
[47]
  GI50: > 100000 nM (inactive)
[48]
  GI50: > 100000 nM (inactive)
[49]
  GI50: > 100000 nM (inactive)
[50]
  GI50: > 100000 nM (inactive)
[51]
  GI50: > 100000 nM (inactive)
[52]
  GI50: > 100000 nM (inactive)

## C=CC(=O)N1C/C(=C\c2ccc(Cl)c(Cl)c2)C(=O)/C(=C/c2ccc(Cl)c(Cl)c2)C1
[1]
  GI50: 57.9 nM (active)
[2]
  GI50: 630 nM (active)
[4]
  GI50: 169 nM (active)
[5]
  GI50: 244 nM (active)
[6]
  GI50: 22.8 nM (active)
[7]
  GI50: 112 nM (active)
[8]
  GI50: 37.4 nM (active)
[9]
  GI50: 120 nM (active)
[53]
  GI50: 155 nM (active)
[11]
  GI50: 204 nM (active)
[12]
  GI50: 61.2 nM (active)
[13]
  GI50: 71.6 nM
[15]
  GI50: 362 nM (active)
[16]
  GI50: 264 nM (active)
[17]
  GI50: 1190 nM (inactive)
[18]
  GI50: 67.3 nM (active)
[19]
  GI50: 124 nM (active)
[20]
  GI50: 40.4 nM (active)
[21]
  GI50: 216 nM (active)
[22]
  GI50: 237 nM (active)
[54]
  GI50: 288 nM (active)
[23]
  GI50: 127 nM (active)
[24]
  GI50: 226 nM (active)
[25]
  GI50: 184 nM (active)
[26]
  GI50: 103 nM (active)
[55]
  GI50: 1250 nM (inactive)
[28]
  GI50: 200 nM (active)
[29]
  GI50: 152 nM (active)
[30]
  GI50: 149 nM (active)
[31]
  GI50: 86.5 nM (active)
[32]
  GI50: 31.8 nM (active)
[33]
  GI50: 294 nM (active)
[34]
  GI50: 115 nM (active)
[56]
  GI50: 24.6 nM (active)
[35]
  GI50: 148 nM (active)
[36]
  GI50: 449 nM (active)
[37]
  GI50: 104 nM (active)
[38]
  GI50: 233 nM (active)
[39]
  GI50: 181 nM (active)
[40]
  GI50: 458 nM (active)
[41]
  GI50: 420 nM (active)
[42]
  GI50: 478 nM (active)
[57]
  GI50: 378 nM (active)
[43]
  GI50: 155 nM (active)
[45]
  GI50: 187 nM (active)
[46]
  GI50: 261 nM (active)
[58]
  GI50: 25.9 nM (active)
[47]
  GI50: 60.7 nM (active)
[48]
  GI50: 501 nM (active)
[49]
  GI50: 22.6 nM (active)
[50]
  GI50: 474 nM (active)
[51]
  GI50: 298 nM (active)
[52]
  GI50: 207 nM (active)
